Patent publication US8314082B2, “Stilbene derivatives for ADP-ribosyl cyclase inhibitors” (Industrial Cooperation Foundation Chonbuk National …, priority 2006, dated 2012)
Where two headings read alike, the source gives them in different places.

Tests used:
[1] = system: Ang II induced [Ca^2+]i increase in murine mesangial cells (MMCs); assay: Ang II-mediated [Ca2+]i increase in MMCs; format: cell-based; details: Mus musculus, Mesangial cell, later sustained Ca2+ signal induced by 150 nM Ang II, 300 s, read-out: IC50([Ca^2+]i, uM) (means ± SEM)
Description: Changes in [Ca^2+]i in MMCs were determined as described previously [Kim et al., Exp. Mol. Med. (2006)38:535-45]. Briefly, MMCs cultured on confocal dishes for 48 h at a concentration of 10^4 cells/dish were washed with Hank's balanced salt solution (HBSS) (2 mM CaCl2, 145 mM NaCl, 5 mM KCl, 1 mM MgCl2, 5 mM D-glucose, and 20 mM HEPES, pH 7.3) and then loaded with […] Fluo 3-AM (Molecular Probe, Eugene, Oreg.). Changes in Ca^2+ fluorescence were determined at 488 nm/530 nm (excitation/emission) by air-cooled argon laser system. [Ca^2+]i was calculated using a Kd of 325 nM for Fluo 3-AM by the method of Tsien et al. (1982).

[2] = system: Ang II induced cADPR production in murine mesangial cells (MMCs); assay: Ang II-induced intracellular cADPR concentration in MMCs; format: cell-based; details: Mus musculus, Mesangial cell, read-out: IC50([CADPR]i, uM) (means ± SEM)
Description: [cADPR]i was measured using a cyclic enzymatic assay as described previously [Graeff et al., Biochem. J. (2002)361:379-84]. Aplysia californica ADPR-cyclase was purified from […] according to the method described [Lee et al., Cell Regul. (1991)2:203-9]. Briefly, MMCs were treated with 0.3 ml of 0.6 M perchloric acid under sonication after Ang II treatment. Precipitates were removed by centrifugation at 20,000×g for 10 min. Perchloric acid was removed by mixing the aqueous sample with a solution containing 3 volumes of 1,1,2-trichlorotrifluoroethane to 1 volume of tri-n-octlyamine. After centrifugation for 10 min at 1500×g, the aqueous layer was collected and neutralized with 20 mM sodium phosphate (pH 8). To remove all contaminating nucleotides, the samples were incubated with the following hydrolytic enzymes overnight at 37° C.: 0.44 unit/ml nucleotide pyrophosphatase, 12.5 units/ml alkaline phosphatase, 0.0625 unit/ml NADase, and 2.5 mM MgCl2 in 20 mM sodium phosphate buffer (pH 8.0). Enzymes were removed by filtration using Centricon-3 filters. To convert cADPR to NAD^+, the samples (0.1 ml/tube) were incubated with […] of a cycling reagent containing 0.3 mg/ml Aplysia ADPR-cyclase, 30 mM nicotinamide, and 100 mM sodium phosphate (pH 8) at room temperature for 30 min. The samples were further incubated with the cycling reagent (0.1 ml) containing 2% ethanol, […] alcohol dehydrogenase, 20 mM resazurin, 10 mg/ml diaphorase, 10 mM riboflavin 5′-phosphate, 10 mM nicotinamide, 0.1 mg/ml BSA, and 100 mM sodium phosphate (pH 8.0) for 2 h at room temperature. An increase in the resorufin fluorescence was measured at 544 nm excitation and 590 nm emission using a fluorescence plate reader (Molecular Devices Corp., Spectra-Max GEMINI). Various known concentrations of cADPR were also included in the cycling reaction to generate a standard curve. […] Production of cADPR as well as later sustained Ca^2+ signal in response to Ang II was inhibited with different efficacy by these small molecules (Table 1). […] The order of IC50 was 4,4′-DAHB>resveratrol>azobenzene=piceatannol>2,2′-DAHB.

STZ diabetic mice = assay: Diabetic nephropathy in STZ diabetes mouse model; format: in vivo; details: 45 μg/kg i.p. once a day for 6 weeks, mean SE, n = 6
Description: Male mice, weighing 20 25 g, were made diabetic by a single intravenous injection of STZ (65 mg/kg body weight) in 0.05 M citrate buffer (pH 4.8). At the same day, the control mice were injected with the citrate buffer. After 2 days, induction of diabetes was confirmed by tail blood glucose level measurement by using the LifeScan One Touch glucometer (Johnson & Johnson). The diabetic mice (>16 mM blood glucose) were randomly divided into two groups; 6 mice per group treated with vehicle (0.1% DMSO in saline, 100 μl) or DHAB (45 μg/kg body weight in 0.1% DMSO in saline, 100 μl) and resveratrol (45 μg/kg body weight in 0.1% DMSO in saline, 100 μl) administered by intraperitoneal injection once a day for 6 weeks. The control mice were 6 mice per group treated with the vehicle. On day 39, the mice were detained in individual metabolic cages for 24 h for urine collection. On day 42, the mice were anesthetized with diethyl ether, and blood samples were taken from the abdominal aorta. Bilateral kidneys were rapidly removed and weighed. Urine was gravimetrically collected, and urinary albumin concentrations were determined with an enzyme-linked immunosorbent assay using a murine microalbuminuria kit (Albuwell; Exocell, Philadelphia, Pa.). Urine and serum creatinine levels were measured using the QuantiChrom Creatinine Assay Kit (BioAssay Systems, Hayward, Calif.), following the manufacturer's protocol.

[3] = cADPR production induced by 150 nM Ang II, 90 s, MMCs

Row | IC50 [1] [µM] | IC50 [2, 3] [µM] | Compound | IC50 [2] [µM] | Urine output (STZ diabetic mice; 24 h metabolic cage) [mL/day] | Body Weight (STZ diabetic mice) [g] | Food intake (STZ diabetic mice) [g] | Plasma glucose (STZ diabetic mice) [mg/dL] | Urinary Albumin (STZ diabetic mice) [µg/day] | Water intake (STZ diabetic mice) [mL]
1 | 10 ± 1.7 | 8.9 ± 1.5 | Oc1cc(O)cc(/C=C/c2ccc(O)c(O)c2)c1 [Piceatannol, 3,5,3′,4′-tetrahydroxy-trans-stilbene] | – | – | – | – | – | – | –
2 | 5 ± 0.8 | 5.5 ± 0.5 | Oc1ccc(/C=C/c2cc(O)cc(O)c2)cc1 [Resveratrol, 3,5,4′-trihydroxy-trans-stilbene] | – | 2.55 ± 2.09 | 22.6 ± 0.70 | 3.12 ± 0.79 | 441 ± 48.7 | 2.97 ± 2.11 | 5.67 ± 3.21

Row | Compound | IC50 [1] [µM] | IC50 [2, 3] [µM] | IC50 [2] [µM] | Urine output (STZ diabetic mice; 24 h metabolic cage) [mL/day] | Body Weight (STZ diabetic mice) [g] | Food intake (STZ diabetic mice) [g] | Plasma glucose (STZ diabetic mice) [mg/dL] | Urinary Albumin (STZ diabetic mice) [µg/day] | Water intake (STZ diabetic mice) [mL]
3 | c1ccc(N=Nc2ccccc2)cc1 [Azobenzene] | 10 ± 1.1 | – | 13 ± 2.1 | – | – | – | – | – | –
